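Dose response: 5 concentrations. Exposure: 48 h. Format: 96-well plates. Endpoint: linear interpolation; highest concentration if not reached. At the GI50, growth is halved.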 Calls of active or inactive are those of the source. No stated cut-off is given here; in the data, active = GI50 up to about 1.1 µM and inactive = higher.

Assay in all cases: DTP human tumour cell line panel, 48 h
Assay [1] relates to EKVX.
For assay [2], the system named is UO-31.
The test system of assay [3] is RPMI-8226.
In assay [4] the test system is SNB-19.
The subject of assay [5] is SNB-75.
Assay [6] concerns NCI-H23.
In assay [7] the test system is SF-268.
Assay [8] deals with IGROV-1.
Assay [9] has as its system A498.
The test system of assay [10] is SF-539.
In assay [11] the test system is SR.
The subject of assay [12] is T47D.
For assay [13], the system named is SK-MEL-5.
For assay [14], the system named is OVCAR-5.
The subject of assay [15] is HCT-15.
Assay [16] has as its system OVCAR-3.
In assay [17] the test system is PC-3.
The subject of assay [18] is MCF7.
Assay [19] concerns Hs-578T.
Assay [20] has as its system COLO 205.

Usually GI50 stands for the concentration at which growth is held to half of that of the control. Regarding `Cc1ccc(C2=Nc3c(N)nc(N)nc3NC(c3ccccc3)C2)cc1` (stereo unspecified), the GI50 is 13.5 µM (inactive) in assay [1]; 12.6 µM (inactive) in [2]; 7.01 µM (inactive) in assay [3]; 13.4 µM (inactive) in assay [4]; 15.2 µM (inactive) in assay [5]; 11.3 µM (inactive) in assay [6]. Also, the GI50 is 14.9 µM (inactive) in [7]; 7.16 µM (inactive) in assay [8]; 11.4 µM (inactive) in assay [9]; 12.1 µM (inactive) in assay [10]; 6.92 µM (inactive) in [11]; 12.6 µM (inactive) in assay [12]. The GI50 in assay [13] is 10 µM (inactive); in [14] it was 16.4 µM (inactive); in assay [15] it was 4.92 µM; in assay [16], 11.8 µM (inactive); in [17], 10.5 µM (inactive); in assay [18], 7.69 µM (inactive). Also, the GI50 in assay [19] is 13 µM (inactive).

Regarding `Nc1nc2cc(CNc3ccc(C(=O)O)cc3)ccc2nc1-c1ccccc1`, the GI50 in assay [2] was 86.5 µM (inactive); in assay [3], > 100 µM (inactive); in assay [4], > 100 µM (inactive); in assay [5], 66.5 µM (inactive); in assay [6], 88.7 µM (inactive); in assay [7] it was > 100 µM (inactive). In addition, the GI50 in [8] is > 100 µM (inactive); in assay [9], > 100 µM (inactive); in assay [10], 74.5 µM (inactive); in assay [11] it was > 100 µM (inactive); in assay [20] it was > 100 µM (inactive); in assay [12], 35.1 µM (inactive). Besides, the GI50 in assay [13] is > 100 µM (inactive); in assay [14] it was > 100 µM (inactive); in [15], greater than 100 µM; in [16], > 100 µM (inactive); in assay [17] it was > 100 µM (inactive); in assay [18] it was > 100 µM (inactive). Besides, the GI50 in assay [19] was > 100 µM (inactive).

As for `O=C(/C=C(\O)c1cc(-c2ccccc2)n(-c2ccccc2)n1)c1ccccc1`, the GI50 in assay [1] was 9.59 µM (inactive); in assay [2], 4.27 µM (inactive); in assay [3], 1.8 µM (inactive); in assay [4], 5.97 µM (inactive); in [6], 9.71 µM (inactive); in assay [7], 24.2 µM (inactive). Besides, the GI50 in assay [8] was 2.51 µM (inactive); in assay [9], > 100 µM (inactive); in assay [10], 10.9 µM (inactive); in assay [11], 1.12 µM (active); in assay [20], 4.69 µM (inactive); in assay [12] it was 3.7 µM (inactive). The GI50 is 8.85 µM (inactive) in [13]; 19.3 µM (inactive) in assay [14]; 1.48 µM in assay [15]; 4.84 µM (inactive) in assay [16]; 9.29 µM (inactive) in assay [17]; 9.73 µM (inactive) in assay [18]. The GI50 in assay [19] was 14.7 µM (inactive).

As to `CC(=O)N(C(C)=O)c1ncc(-n2nc(-c3ccccc3)cc2-c2ccccc2)c(-c2ccccc2)n1`, the GI50 in assay [1], in [3], in assay [4], in assay [5], in assay [6] and in assay [7] was > 10 µM (inactive) each time. Also, the GI50 in assay [8] is > 10 µM (inactive); in [9] it was > 10 µM (inactive); in assay [10], > 10 µM (inactive); in assay [11] it was 3.5 µM (inactive); in assay [20], > 10 µM (inactive); in assay [12], > 10 µM (inactive). Besides, the GI50 in [13] was 4.12 µM (inactive); in assay [14], > 10 µM (inactive); in assay [15] it was 8.91 µM; in assay [16], > 10 µM (inactive); in [17], > 10 µM (inactive); in assay [18], 5.07 µM (inactive). In addition, the GI50 in assay [19] was > 10 µM (inactive).

For `O=C1CSC(c2cccc(Cl)c2)N1c1ccc(-c2ccc(-n3c(-c4ccccc4)nc4ccccc4c3=O)cc2)cc1` (stereo unspecified), the GI50 in assay [1] is 59 µM (inactive); in assay [2], 21.6 µM (inactive); in assay [3] it was 42.8 µM (inactive); in assay [4], > 100 µM (inactive); in assay [6], 58.5 µM (inactive); in assay [7] it was 54.1 µM (inactive). In addition, the GI50 in assay [8] is 77.4 µM (inactive); in [9] it was > 100 µM (inactive); in assay [10], 72.3 µM (inactive); in [11] it was 18.9 µM (inactive); in assay [20], 34.6 µM (inactive); in assay [12], 24.3 µM (inactive). Moreover, the GI50 in assay [13] was 25.5 µM (inactive); in assay [14] it was 64.6 µM (inactive); in assay [15] it was 33.5 µM; in [16], 36 µM (inactive); in [17], 29.8 µM (inactive); in [18] it was 30.8 µM (inactive). Besides, the GI50 in [19] was > 100 µM (inactive).

Consider `C/C(=N\N=C1/C(=O)OC(c2ccccc2)=C1C(=O)c1ccccc1)c1ccc([N+](=O)[O-])cc1`, for which the GI50 in assay [1] is 36.3 µM (inactive); in assay [2], 44.7 µM (inactive); in assay [3], 21.5 µM (inactive); in assay [4], > 100 µM (inactive); in [6], 92.9 µM (inactive); in assay [7] it was > 100 µM (inactive). The GI50 in assay [8] is 29.2 µM (inactive); in assay [9], > 100 µM (inactive); in [10] it was 65.2 µM (inactive); in assay [11], 6.7 µM (inactive); in [20], 52.2 µM (inactive); in assay [12], 42.9 µM (inactive). For the same compound, the GI50 in assay [13] is 37 µM (inactive); in assay [14], 72.3 µM (inactive); in [15], 23.7 µM; in assay [16], 33.7 µM (inactive); in assay [17] it was 65.9 µM (inactive); in assay [18], 26.7 µM (inactive). For the same compound, in assay [19], the GI50 was 54.3 µM (inactive).

As for `Cc1nc(C)c(N2CCN(C#N)CC2)c(O)n1`, the GI50 is > 100 µM (inactive) in assay [1]; > 100 µM (inactive) in assay [2]; > 100 µM (inactive) in assay [3]; > 100 µM (inactive) in [4]; 0.0442 µM (active) in assay [5]; > 100 µM (inactive) in assay [6]. The GI50 in assay [7], in assay [8], in [9], in [10], in assay [11] and in [20] was > 100 µM (inactive) each time. For the same compound, the GI50 was > 100 µM (inactive) in assay [12]; > 100 µM (inactive) in assay [13]; greater than 100 µM in [15]; > 100 µM (inactive) in assay [16]; > 100 µM (inactive) in assay [17]; > 100 µM (inactive) in assay [18]. Further, the GI50 in [19] is > 100 µM (inactive).

For `O=C1/C(=C/c2ccccc2O)N=C(c2ccccc2)N1c1nc2ccccc2s1`, the GI50 in assay [1] was 24.5 µM (inactive); in assay [2], 36.6 µM (inactive); in assay [3] it was 19.1 µM (inactive); in assay [5], 21.4 µM (inactive); in [6], 11.1 µM (inactive); in [7], 20.2 µM (inactive). Besides, the GI50 in assay [8] was 15.6 µM (inactive); in assay [9] it was 20.4 µM (inactive); in assay [10], 20.7 µM (inactive); in assay [11], 2.24 µM (inactive); in [12], 21.1 µM (inactive); in assay [13], 7.57 µM (inactive). Besides, the GI50 in [14] is 51.4 µM (inactive); in [15], 6.11 µM; in assay [16], 7.43 µM (inactive); in [17] it was 15.7 µM (inactive); in [18], 3.37 µM (inactive); in assay [19], 16 µM (inactive).

For the origin of these results see ChEMBL document CHEMBL1201862, “PubChem BioAssay data set” (2004).
